Assay [1] deals with Aβ from A549 cell-conditioned media. As to the kind of experiment: ELISA, HN (endogenous and exogenously added) and AChE bound to Aβ from A549 media on 82E1 antibody. The class given is binding, human. The settings on record: Fig. 6A. The procedure: Human NSCLC cell lines, A549 (ATCC CCL‐185) and H1299 (ATCC CRL‐5803), were purchased from the American Type Culture Collection (ATCC, Manassas, VA, USA). Cells were seeded as we reported earlier in 5 mL HyClone Dulbecco's modified Eagle's medium/nutrient mixture F‐12 (DMEM/F12) (GE Healthcare Life Sciences, Pittsburgh, PA, USA), supplemented with 10% Fetalgro bovine growth serum (FBS; RMBIO, Missoula, MT, USA), 50 U·mL^−1 penicillin, and […] streptomycin (Invitrogen, Life Technologies, Carlsbad, CA, USA) in 25‐cm^2 tissue culture flasks, and allowed to grow overnight in an incubator at 37 °C, 95% humidity, and 5% CO2. The cells were counted after trypan blue staining, with a hemocytometer.
ELISAs were carried out as we previously reported. Nunc MaxiSorp 96‐well flat bottom plate (Thermo Fisher) wells were coated with samples as indicated. The plates were incubated overnight at 4 °C on a shaker to allow binding of the samples to the plate wells. After the incubation, the wells were washed 4× with TBST, filled with 400 µL blocking buffer (110 mM KCl, 5 mM NaHCO3, 5 mM MgCl2, 1 mM EGTA, 0.1 mM CaCl2, 20 mM HEPES, 1% BSA, pH 7.4), and incubated with shaking overnight at 4 °C. The wells were then washed 4× with TBST, and 100 µL of sample at the desired concentration was added to each well and incubated with shaking overnight at 4 °C. TBST was then used to wash the wells 4× before proceeding in one of two ways: (a) biotinylated samples were analyzed by adding 100 µL streptavidin–HRP conjugate in TBST (1 : 2500 dilution) to the samples followed by incubation for 3 h at RT on a shaker, or (b) samples without biotin were analyzed by adding 100 µL TBST containing the primary antibody as per the manufacturer's recommendation, incubating for 3 h at RT on a shaker, followed by washing the wells 4× with TBST. The secondary antibody in 100 µL TBST was then added to the samples following the manufacturer's recommendation and incubated for 1 h at RT on a shaker. […] The reaction was stopped with 100 µL 2 M H2SO4 after incubating at RT for 0.5–15 min, resulting in a yellow color change, measured by absorbance at 450 nm. To monitor nonspecific binding, negative control wells on the plates included, for example, bound Aβ peptide then adding all components, streptavidin‐HRP and TMB, but without addition of biotin‐HN. Some wells were coated with 2.5, 10, 50, 100, 500, and 5000 nM biotin‐HN or Aβ to allow conversion of the OD measurements to concentrations of bound material. Before analysis, the OD from the data was corrected for nonspecific binding by subtracting the mean background absorbance for the negative controls. Typically, in control wells incubated on each plate, the background binding is about 10–15% of the maximum binding seen with addition of biotin peptides or antibodies. Statistical analysis was determined by the […] PRISM 8.4.3 software (San Diego, CA, USA). Data were expressed as the mean ± SD. […]
Anti‐Aβ‐specific antibodies (82E1) were added (1 : 1000 dilution) to ELISA plate wells (Fig. 6). The wells were blocked, and then, 300 µL of the conditioned media (0.5 µg·µL^−1) of A549 or H1299 cells, 72 h postserum starvation, was added in the absence or presence of increasing HN concentrations, and the HN and AChE bound were detected using the corresponding specific primary antibodies. Fold change relative to controls that included all components but without the primary antibodies was calculated and fit with a nonlinear regression curve using the […] […]

In the next assay the test system is Aβ. Particulars: cited from earlier work. From the text:
Soluble oligomers of proteins implicated in different diseases are primarily thought to be the main toxic form as opposed to the larger fibrillar assemblies. Aβ regions containing Tyr and Ser (H6DSGY10 and G25SNKG29) (Fig. 1) along with post‐translational modifications of these regions, have been implicated in misfolding, oligomerization, or fibril formation of Aβ [5, 10, 11, 16, 41]. […] In addition to ATP, the glycosaminoglycan, heparan sulfate (HS), has been previously reported to i ... || Access to the central domain of Aβ (residues 17–24) flanked by Lys‐16 and Lys‐28, known to be a critical structural element in fibrillar Aβ aggregates, might be regulated by binding of AChE and HN to their overlapping binding sites on Aβ. […] Moreover, we s ...

Consider `Nc1ncnc2c1ncn2[C@@H]1O[C@H](COP(=O)(O)OP(=O)(O)OP(=O)(O)O)[C@@H](O)[C@H]1O` [ATP, Adenosine triphosphate], for which the “effect of ATP on binding of exogenously added HN to Aβ” value in assay [1] (0.1 mM, 1 mM ATP (more pronounced at 1 mM), A549 media) was “decreased binding of exogenously added HN”. Also, in assay [1] (A549 cell-conditioned media, 82E1), the “effect of ATP on binding of Aβ to AChE” value is “decreased upon addition of ATP”. Also, the “effect of ATP on binding of endogenous HN to Aβ” value in assay [1] (increasing ATP (0.1 mM, 1 mM; more pronounced at 1 mM), A549 media, 82E1) is “increased binding of endogenous HN”. In addition, the “effect on misfolding of Aβ” value in the assay on Aβ (physiological intracellular concentrations, enhanced by magnesium) is listed as “reduced misfolding of Aβ”.

For the molecule Humanin [HN], the “HN concentration at which signal begins to level off” value in assay [1] (exogenous HN, A549 media) is given as “around 50 nM”. Further, in assay [1] (increasing exogenous HN, A549 media, 82E1), the “binding of exogenous HN to Aβ” value is recorded as “increased binding to Aβ”. Besides, the “Aβ aggregation in presence of both HN and AChE” value in the assay with Aβ (to levels close to HN alone) is “greatly diminished”.

For heparan sulfate [HS], in the assay on Aβ, the “effect of HS on Aβ aggregation” value was “increasing their aggregation”.

These data come from PMC7714071, “Interaction of amyloid beta with humanin and acetylcholinesterase is modulated by ATP” (FEBS Open Bio, 2020).
